Experimental data published in PubChem BioAssay AID652060 (Broad Institute, 2013).
Calls of active or inactive are those of the source. The rule behind the calls is not given here.

system: not listed separately; experiment: false-positive firefly luciferase signal increase – D54 LucT cells, luminescence, dry powder, counter-screen for N-linked glycosylation inhibitor project, dose response (AID 652060); details: D54 LucT luciferase counterscreen, luminescence, 24 h; at 19.5 µM (top of the series)

SMILES | luciferase activity increase
CC(=O)c1ccc(Oc2cc(C)nc(-n3nc(C)cc3C)n2)cc1 | 0% (inactive)
O=C1CCN(Cc2ccccc2)c2cc3ccccc3cc21 | 0% (inactive)
Cc1ccc(CCC(=O)Nc2ncc(Cc3cc(Cl)ccc3Cl)s2)o1 | -33.3% (inactive)
CCOc1ccc(NC(=O)c2cc(OC)nc3ccccc23)cc1 | 0% (inactive)
CC(=O)c1cccc(NC(=O)CSc2ncc(C(=O)Nc3ccccc3)c(=O)n2C)c1 | 33.3% (inactive)
COc1ccc2c(COC(=O)c3cccc(S(=O)(=O)NCC(C)C)c3)cc(=O)oc2c1 | 66.7% (inactive)
COc1ccc(NC(=O)C(=O)c2cn(CC(=O)N3CCCC3)c3ccccc23)cc1 | -33.3% (inactive)
CCC1=Nc2cc(C(=O)NCCCOC)ccc2Sc2ccccc21 | -33.3% (inactive)
CCCCOc1ccccc1C1CC(=O)NC2=C1C(=O)CCC2 (stereo unspecified) | 0% (inactive)
Cc1cc(NC(=O)CSc2nc(-c3ccco3)cc(C(F)(F)F)n2)no1 | 0% (inactive)
COc1cccc(N2CCN(C(=O)c3ccc(CS(=O)c4ccc(C)cc4)o3)CC2)c1 (stereo unspecified) | 0% (inactive)
O=C(Cc1ccccc1)c1nnc(-c2ccccc2)o1 | 33.3% (inactive)
O=C1CCNc2cc3ccccc3cc21 | -66.7% (inactive)
CC(=O)N1CCC(=O)c2cc3ccccc3cc21 | 33.3% (inactive)
CC(=O)N[C@H]1[C@@H](O[C@@H]2OC(C[C@@H](O)C3O[C@@H](n4ccc(=O)[nH]c4=O)[C@H](O)[C@@H]3O)[C@H](O)[C@H](O)[C@H]2NC(=O)/C=C/CCCCCCCCCCC(C)C)O[C@H](CO)[C@@H](O)[C@@H]1O (stereo partly specified) | -50% (inactive)
COc1cc(Nc2c3c(nc4ccccc24)CCCC3)cc(OC)c1OC | 0% (inactive)
COc1ccc(CSc2nnc(-c3ccccc3)o2)cc1 | 50% (inactive)
CCOc1ccc(S(=O)(=O)NCc2ccccn2)cc1NC(=O)c1ccccc1F | 0% (inactive)

SMILES | luciferase activity increase
Cc1[nH][nH]c(=O)c1C(c1ccc(-c2ccc(Cl)c(Cl)c2)o1)c1c(C)[nH][nH]c1=O | 0% (inactive)
Cc1cc(C)cc(C(=O)N2CC(=O)Nc3ccccc32)c1 | 33.3% (inactive)
Cc1cnc(NC(=O)c2cc(S(=O)(=O)N(C)C)ccc2N2CCCC2)s1 | 0% (inactive)
Cc1cccc(C)c1OCCNC(=O)C(=O)NCc1ccco1 | 33.3% (inactive)
CCCOC(=O)c1[nH]c2c(c1C)C(=O)CC(c1cccs1)C2 (stereo unspecified) | 50% (inactive)
Cc1ccc(C(=O)c2cc([N+](=O)[O-])ccc2N2CCOCC2)cc1C | 66.7% (inactive)
CCN(CC)CCC(=O)Nc1cccc2c1C(=O)c1ccccc1C2=O | -33.3% (inactive)
CCn1c2ccccc2c2cc(NC(=O)c3cc(OC)c(OC)c(OC)c3)ccc21 | -33.3% (inactive)
CCN(CC)CCCNc1nc2cc(OC)c(OC)cc2c2nc(-c3ccccc3)nn12 | -33.3% (inactive)
COc1ccccc1OCC(=O)NNC(=O)c1ccoc1C | 33.3% (inactive)
Cc1cc(=O)[nH]c(N/N=C/c2cc(C)n(CC(F)(F)F)c2C)n1 | 0% (inactive)
Cc1ccc(Oc2ccc(S(=O)(=O)N3CCOCC3)cc2C(N)=O)c(-n2nc3ccccc3n2)c1 | 33.3% (inactive)
Brc1ccc(CSc2nnc(-c3ccccc3)o2)cc1 | 0% (inactive)
C/C(=N\NC(=O)c1c([N+](=O)[O-])c(C)nn1C)c1ccc(NC(=O)C2CCCC2)cc1 | 0% (inactive)
Cc1cc(C)nc(/N=C(\N)Nc2ccc(OCc3ccccc3)cc2)n1 | -33.3% (inactive)
CCN(CC)CCOc1ccc2c(c1)C(=NNC(=O)c1ccccn1)c1cc(OCCN(CC)CC)ccc1-2 | -33.3% (inactive)
COc1cc(C(=O)NCCOc2cc(C)cc(C)c2)cc(OC)c1OC | 33.3% (inactive)
CCOC(=O)COc1cccc2c(=O)n(CC(=O)NCc3ccccc3)ccc12 | 0% (inactive)

system: D54 LucT luciferase counterscreen, luminescence, 24 h; experiment: as above; details: not given

SMILES | AC40 [nM]
COC(=O)c1cn(C(=O)c2ccc(OC)cc2)c2ccccc12 | 15400
COc1cc(-c2nnc(SCC3(c4ccc(Br)cc4)OCCO3)o2)cc(OC)c1OC | 930
Nc1nc(=S)c2ncn([C@@H]3O[C@H](CO)[C@@H](O)[C@H]3O)c2[nH]1 | 5190
CCOC(=O)c1ccc(Oc2cc(C)nc(SC)n2)cc1 | 3390
COc1ccc(-c2nnc(SCc3ccccc3)o2)cc1 | 5120
CCCNS(=O)(=O)c1cccc(C(=O)OCc2cc(=O)oc3cc(OC)ccc23)c1 | 2140
O=C(N/N=C/c1ccc(Cl)cc1)c1sccc1OCc1ccc(F)cc1 | 1600
Cc1ccc(/C=N/NC(=O)C2COc3ccccc3O2)s1 (stereo unspecified) | 15300
COc1ccccc1-c1nnc(SCc2ccccc2)o1 | 632
COc1ccccc1CSc1nnc(-c2ccccc2)o1 | 845
